Experiments:
Test in all cases: combination Emax (second highest fraction inhibited in the dose matrix, 72 h); higher = more inhibition; extreme values may be limits of the assay
[1] = tested on: JHH-6 (Hepatocellular Carcinoma)
Method in brief: (§1)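 Cell lines grown in DMEM/F12 or RPMI with 10% FBS were plated in 1536-well plates and held 24 hours at 37°C, 5% CO2 before 72 hours of exposure to two-drug dose matrices, with DMSO typically at 0.2%. CellTiter-Glo 2.0 luminescence gave viability, which was converted to inhibition. Vehicle wells were set to 0 and blank wells to 1. Combination Emax is the second-highest inhibition in the matrix, and Bliss excess is the observed combination effect minus the expected EA + EB − EA·EB, where EA and EB are the single-agent effects.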

[2] = tested on: EFM-192A (Breast Carcinoma)
Method in brief: as §1

[3] = tested on: SW948 (Colorectal Carcinoma)
Method in brief: as §1

[4] = tested on: HCC1143 (Breast Carcinoma)
Method in brief: as §1

[5] = tested on: PA-TU-8902 (Pancreatic Carcinoma)
Method in brief: as §1

[6] = tested on: SK-LMS-1 (Other Solid Carcinomas)
Method in brief: as §1

[7] = tested on: SNG-M (Endometrial Carcinoma)
Method in brief: as §1

[8] = tested on: HCT-116 (Colorectal Carcinoma)
Method in brief: as §1

[9] = tested on: HCC-827 (Lung Adenocarcinoma)
Method in brief: as §1

[10] = tested on: HCC38 (Breast Carcinoma)
Method in brief: as §1

[11] = tested on: WSU-DLCL2 (B-Cell Non-Hodgkin's Lymphoma)
Method in brief: as §1

[12] = tested on: RCC10RGB (Kidney Carcinoma)
Method in brief: as §1

[13] = tested on: D-392MG (Glioblastoma)
Method in brief: as §1

[14] = tested on: P31-FUJ (Acute Myeloid Leukemia)
Method in brief: as §1

[15] = tested on: MES-SA (Other Solid Carcinomas)
Method in brief: as §1

[16] = tested on: NOMO-1 (Acute Myeloid Leukemia)
Method in brief: as §1

[17] = tested on: SKN-3 (Head and Neck Carcinoma)
Method in brief: as §1

[18] = tested on: SK-UT-1 (Other Solid Carcinomas)
Method in brief: as §1

[19] = tested on: DOK (Oral Cavity Carcinoma)
Method in brief: as §1

[20] = tested on: MEG-01 (Chronic Myelogenous Leukemia)
Method in brief: as §1

Row | SMILES | combination Emax [1] | combination Emax [2] | combination Emax [3] | combination Emax [4] | combination Emax [5] | combination Emax [6] | combination Emax [7] | combination Emax [8] | combination Emax [9] | combination Emax [10] | combination Emax [11] | combination Emax [12] | combination Emax [13] | combination Emax [14] | combination Emax [15] | combination Emax [16] | combination Emax [17] | combination Emax [18] | combination Emax [19] | combination Emax [20]
1 | COc1nnc2ccc(N3CCC(c4ccc(OCCN5CCN(C)C(=O)[C@H]5C)cc4)CC3)nn12 [AZD5153] + CC1(C)CCC(CN2CCN(c3ccc(C(=O)NS(=O)(=O)c4ccc(NCC5CCOCC5)c([N+](=O)[O-])c4)c(Oc4cnc5[nH]ccc5c4)c3)CC2)=C(c2ccc(Cl)cc2)C1 [Venetoclax] (first compound max 1 µM, 7x7, partner max 1 µM) | 0.463 | 0.326 | 0.513 | 0.357 | 0.275 | 0.507 | 0.548 | 0.666 | 0.348 | 0.458 | 1 | 0.539 | 0.45 | 0.974 | 0.386 | 1 | 0.467 | 0.543 | 0.431 | 0.889
2 | CC1(C)CCC(CN2CCN(c3ccc(C(=O)NS(=O)(=O)c4ccc(NCC5CCOCC5)c([N+](=O)[O-])c4)c(Oc4cnc5[nH]ccc5c4)c3)CC2)=C(c2ccc(Cl)cc2)C1 [Venetoclax] + C[C@@H]1COCCN1C2=NC(=NC(=C2)C3(CC3)[S@](=N)(=O)C)C4=C5C=CNC5=NC=C4 [AZD6738] (first compound max 1 µM, 7x7, partner max 10 µM) | 0.459 | 0.299 | 0.595 | 0.821 | 0.344 | 0.548 | 0.894 | 0.671 | 0.33 | 0.531 | 0.969 | 0.5 | 0.339 | 0.968 | 0.671 | 0.973 | 0.576 | 0.895 | 0.414 | 0.883
3 | CC1(C)CCC(CN2CCN(c3ccc(C(=O)NS(=O)(=O)c4ccc(NCC5CCOCC5)c([N+](=O)[O-])c4)c(Oc4cnc5[nH]ccc5c4)c3)CC2)=C(c2ccc(Cl)cc2)C1 [Venetoclax] + CN(C)CCCOc1ccc(-c2ccc3ncc4c(c3c2)n(C2CCOCC2)c(=O)n4C)cn1 [AZD0156] (first compound max 1 µM, 7x7, partner max 1 µM) | 0.212 | 0.25 | 0.409 | 0.232 | 0.209 | 0.5 | 0.127 | 0.196 | 0.26 | 0.193 | 0.33 | 0.174 | 0.205 | 0.861 | 0.138 | 0.912 | 0.134 | 0.381 | 0.2 | 0.782
4 | Cc1c2c(nn1C)CSCc1cc(n(C)n1)CSc1cc(c3ccccc3c1)OCCCc1c(C(=O)O)n(C)c3c-2c(Cl)ccc13 [AZD5991] + C[C@@H]1COCCN1C2=NC(=NC(=C2)C3(CC3)[S@](=N)(=O)C)C4=C5C=CNC5=NC=C4 [AZD6738] (first compound max 1 µM, 7x7, partner max 10 µM) | 0.416 | 0.735 | 0.563 | 0.827 | 0.26 | 0.453 | 0.88 | 0.63 | 0.426 | 0.688 | 1 | 0.43 | 0.427 | 0.998 | 0.762 | 0.995 | 0.687 | 0.801 | 0.633 | 0.931
5 | Cc1c2c(nn1C)CSCc1cc(n(C)n1)CSc1cc(c3ccccc3c1)OCCCc1c(C(=O)O)n(C)c3c-2c(Cl)ccc13 [AZD5991] + C1CN(CCC1(C(=O)N[C@@H](CCO)C2=CC=C(C=C2)Cl)N)C3=NC=NC4=C3C=CN4 [Capivasertib] (first compound max 1 µM, 7x7, partner max 3 µM) | 0.278 | 0.67 | 0.569 | 0.252 | 0.174 | 0.302 | 0.333 | 0.24 | 0.314 | 0.506 | 1 | 0.298 | 0.495 | 0.99 | 0.367 | 0.909 | 0.121 | 0.24 | 0.383 | 0.361
6 | CC1(C)CCC(CN2CCN(c3ccc(C(=O)NS(=O)(=O)c4ccc(NCC5CCOCC5)c([N+](=O)[O-])c4)c(Oc4cnc5[nH]ccc5c4)c3)CC2)=C(c2ccc(Cl)cc2)C1 [Venetoclax] + Cn1cnc2c(F)c(Nc3ccc(Br)cc3Cl)c(C(=O)NOCCO)cc21 [Selumetinib] (first compound max 1 µM, 7x7, partner max 3 µM) | 0.222 | 0.11 | 0.577 | 0.275 | 0.26 | 0.203 | 0.2 | 0.506 | 0.184 | 0.109 | 0.375 | 0.447 | 0.161 | 0.871 | 0.138 | 0.994 | 0.286 | 0.221 | 0.407 | 0.868
7 | Cc1nc(Nc2ncc(C(=O)Nc3c(C)cccc3Cl)s2)cc(N2CCN(CCO)CC2)n1 [Dasatinib] + CC(=O)Nc1cccc(-n2c(=O)n(C3CC3)c(=O)c3c(Nc4ccc(I)cc4F)n(C)c(=O)c(C)c32)c1 [Trametinib] (first compound max 2 µM, 7x7, partner max 1 µM) | 0.611 | 0.122 | 0.764 | 0.657 | 0.589 | 0.645 | 0.798 | 0.979 | 0.947 | 0.285 | 0.432 | 0.667 | 0.627 | 0.65 | 0.221 | 0.861 | 0.575 | 0.344 | 0.904 | 1
8 | Cc1c2c(nn1C)CSCc1cc(n(C)n1)CSc1cc(c3ccccc3c1)OCCCc1c(C(=O)O)n(C)c3c-2c(Cl)ccc13 [AZD5991] + Cc1cc2ncnn2cc1Nc1ncc2c(n1)n(C1CCOCC1)c(=O)n2C [AZD7648] (first compound max 1 µM, 7x7, partner max 10 µM) | 0.219 | 0.692 | 0.436 | 0.267 | 0.321 | 0.344 | 0.299 | 0.311 | 0.288 | 0.335 | 1 | 0.342 | 0.271 | 0.965 | 0.221 | 0.865 | 0.179 | 0.282 | 0.421 | 0.468
9 | Cn1cnc2c(F)c(Nc3ccc(Br)cc3Cl)c(C(=O)NOCCO)cc21 [Selumetinib] + CC(C)n1c(=O)n(C)c2cnc3cc(F)c(-c4ccc(OCCCN5CCCCC5)nc4)cc3c21 [AZD1390] (first compound max 10 µM, 7x7, partner max 0.3 µM) | 0.168 | 0.103 | 0.698 | 0.297 | 0.307 | 0.264 | 0.187 | 0.664 | 0.195 | 0.116 | 0.14 | 0.437 | 0.145 | 0.555 | 0.115 | 0.767 | 0.228 | 0.153 | 0.416 | 0.671
10 | Cc1cc2ncnn2cc1Nc1ncc2c(n1)n(C1CCOCC1)c(=O)n2C [AZD7648] + CCN(CCO)CCCOc1ccc2c(Nc3cc(CC(=O)Nc4cccc(F)c4)[nH]n3)ncnc2c1 [AZD2811] (first compound max 10 µM, 7x7, partner max 1 µM) | 0.339 | 0.345 | 0.737 | 0.403 | 0.309 | 0.409 | 0.281 | 0.528 | 0.24 | 0.287 | 0.476 | 0.264 | 0.329 | 0.957 | 0.57 | 0.606 | 0.128 | 0.341 | 0.47 | 0.507
11 | NC1(C(=O)N[C@@H](CCO)c2ccc(Cl)cc2)CCN(c2ncnc3[nH]ccc23)CC1 [Capivasertib] + CC(=O)c1c(C)c2cnc(Nc3ccc(N4CCNCC4)cn3)nc2n(C2CCCC2)c1=O [Palbociclib] (first compound max 10 µM, 7x7, partner max 10 µM) | 0.501 | 0.432 | 0.57 | 0.498 | 0.409 | 0.433 | 0.501 | 0.782 | 0.344 | 0.209 | 1 | 0.54 | 0.436 | 0.571 | 0.607 | 0.517 | 0.474 | 0.458 | 0.596 | 0.468
12 | CN(CCO)CC[C@H](CSc1ccccc1)Nc1ccc(S(=O)(=O)NC(=O)c2ccc(N3CCC([C@@H](O)c4ccccc4-c4ccc(Cl)cc4)CC3)cc2)cc1S(=O)(=O)C(F)(F)F [AZD4320] + C1CN(CCC1(C(=O)N[C@@H](CCO)C2=CC=C(C=C2)Cl)N)C3=NC=NC4=C3C=CN4 [Capivasertib] (first compound max 1 µM, 7x7, partner max 3 µM) | 0.153 | 0.418 | 0.624 | 0.297 | 0.156 | 0.305 | 0.528 | 0.146 | 0.201 | 0.848 | 1 | 0.237 | 0.189 | 0.869 | 0.282 | 0.51 | 0.062 | 0.226 | 0.39 | 0.901

— the supplement of paper PMC11061612
